In BindingDB's records for patent US20240342186 (Boehringer Ingelheim International, 2024):

Target: Cyclic GMP-AMP synthase (Homo sapiens, UniProt Q8N884)
Test: Biochemical (In Vitro) Assay

Cyclic GMP-AMP synthase, sequence (Q8N884 whole entry): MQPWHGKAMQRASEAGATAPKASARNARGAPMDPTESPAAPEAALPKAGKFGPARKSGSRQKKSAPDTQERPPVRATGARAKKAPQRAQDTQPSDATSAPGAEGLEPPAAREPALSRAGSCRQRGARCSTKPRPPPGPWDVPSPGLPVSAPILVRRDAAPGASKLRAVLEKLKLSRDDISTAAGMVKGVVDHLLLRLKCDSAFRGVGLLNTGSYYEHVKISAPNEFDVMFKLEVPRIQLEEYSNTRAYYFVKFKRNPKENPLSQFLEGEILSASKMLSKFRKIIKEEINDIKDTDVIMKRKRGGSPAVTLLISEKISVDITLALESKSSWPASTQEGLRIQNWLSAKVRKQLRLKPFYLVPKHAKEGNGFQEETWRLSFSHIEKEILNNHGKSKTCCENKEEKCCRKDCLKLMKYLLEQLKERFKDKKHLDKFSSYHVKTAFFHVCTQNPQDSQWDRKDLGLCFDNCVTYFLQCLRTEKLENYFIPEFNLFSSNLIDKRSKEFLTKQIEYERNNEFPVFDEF

Row | SMILES | IC50 [nM]
1 | CC1(C#N)CCCN(c2cc(Cl)cnc2O[C@H]2C[C@@H](C(=O)O)N(c3nc(C(F)F)nc4c3oc3ccccc34)C2)C1 (stereo partly drawn) [US20240342186, Example 1.04] | 6
2 | O=C(O)[C@@H]1C[C@H](Oc2ncc(Br)cc2N2CCOC3(COC3)C2)CN1c1nc(C(F)F)nc2c1oc1ccccc12 [US20240342186, Example 1.24] | 9
3 | C#Cc1cnc(O[C@H]2C[C@@H](C(=O)O)N(c3nc(C(F)F)nc4c3oc3ccccc34)C2)c(N2CCOC3(COC3)C2)c1 [US20240342186, Example 1.25] | 4
